Experimental data: US8614201B2 (Janssen Pharmaceutica NV, priority 2009, dated 2013)

Molecular target: Human TRPA1 (Homo sapiens, UniProt O75762)
Assay: Alternative TRPA1 Ca2+ fluorometry assay (hTRPA1/TREx-HEK293 cells, Fluo-4, FDSS 6000)
Assay type: cell-based
Set-up: expressed in transfected cells
Settings: Fluo-4-AM, agonist 6,11-dihydro-5H-dibenzo[b,e]azepine-10-carboxylic acid methyl ester 25 nM, procedure used for Examples 184, 190 to 192, 194 to 316
Description: In alternative embodiments, the assay was performed using the following procedure for Examples 184, 190 to 192, and 194 to 316:
The human TRPA1 gene was cloned into the pT-Rex-Dest30 inducible vector and stably transfected in T-Rex™-293 cells (Invitrogen, Merelbeke, Belgium). This tetracycline inducible hTRPA1 expression system was used in order to prevent CA^2+ overload in the cultured cells due to sustained TRPA1 expression. hTRPA1/TREx-HEK293 cells (referred to as jTRPA1 cells in the following text) were maintained under standard sterile cell culture conditions. The culture medium for the jTRPA1-HEK cells was DMEN (Gibco BRL, Invitrogen, Merelbeke, Belgium) supplemented with 5 g/l gengticin (Gibco), 5 mL/l blasticidin (Invitorgen), 14.6 g/l L-Glutamine (200 mMl; Gibco), 5 g/l penicillin/streptomycin (5.10-6 IU/I, Gibco), 5.5 g/l pyruvic acid (Gibco) and 10% foetal calf serum (Hyclone, Logan Utah, USA).
For Ca^2+ fluorometry experiments, hTRPA1-HEK cells were resuspended in HBSS seeding medium: HBSS (with CaCl2 and MgCl2: Gibco) supplemented with 14.6 g/l L-Glutamine (200 mM; Gibco), 5 g/l penicillin/streptomycin (5.10-6 IU/l. Gibco), 5.5 g/l pyruvic acid (Gibco) and 10% foetal calf serum (heat inactivated for 30 minutes at 56° C.; Hyclone, Logan Utah, USA). The cells were seeded in poly-D-lysine-coated 384-well round bottom polypropylene plates (Costar Corning, Data Packaging, Cambridge Mass., USA) at 12000 cells/well. Fifty ng/ml tetracycline was added to induce the hTRPA1 expression 24 h before the experiment.
The cells were loaded with 5 mg/l Fluo-4-AM (Molecular Probes, Invitorgen, Merelbeke, Belgium) dissolved in HBSS seeding medium supplemented with 0.7 g/l Probenecid (Sigma) and incubated for 1 h at 37° C. and subsequently at 20° C. for 1 to 2 h. The fluorescence was measured in the FDSS 6000 imaging based plate reader (Hamamutsu Photonics K.K., Hamamutsu City, Japan). The excitation wavelength was 488 nm and the emission wavelength 540 nm. After a control period of 12 seconds the inventive compounds were added and the Ca^2+ signal was measured within 14 minutes after application. Finally, a TRPA1 agonist, 6,11-dihydro-5H-dibenzo[b,e]azepine-10-carboxylic acid methyl ester, was added at a final concentration of 25 nM. The emission ratio was calculated by dividing the emission signal (Em540) by the first EM540 signal of the control period to compensate for the background fluorescence. […] For intracellular Ca^2+ measurements, a compound stock solution (10 to 100 mM) was further diluted in DMSO in order to obtain a final 1% DMSO concentration in the extracellular solution.

Chain of Human TRPA1 (O75762 whole entry): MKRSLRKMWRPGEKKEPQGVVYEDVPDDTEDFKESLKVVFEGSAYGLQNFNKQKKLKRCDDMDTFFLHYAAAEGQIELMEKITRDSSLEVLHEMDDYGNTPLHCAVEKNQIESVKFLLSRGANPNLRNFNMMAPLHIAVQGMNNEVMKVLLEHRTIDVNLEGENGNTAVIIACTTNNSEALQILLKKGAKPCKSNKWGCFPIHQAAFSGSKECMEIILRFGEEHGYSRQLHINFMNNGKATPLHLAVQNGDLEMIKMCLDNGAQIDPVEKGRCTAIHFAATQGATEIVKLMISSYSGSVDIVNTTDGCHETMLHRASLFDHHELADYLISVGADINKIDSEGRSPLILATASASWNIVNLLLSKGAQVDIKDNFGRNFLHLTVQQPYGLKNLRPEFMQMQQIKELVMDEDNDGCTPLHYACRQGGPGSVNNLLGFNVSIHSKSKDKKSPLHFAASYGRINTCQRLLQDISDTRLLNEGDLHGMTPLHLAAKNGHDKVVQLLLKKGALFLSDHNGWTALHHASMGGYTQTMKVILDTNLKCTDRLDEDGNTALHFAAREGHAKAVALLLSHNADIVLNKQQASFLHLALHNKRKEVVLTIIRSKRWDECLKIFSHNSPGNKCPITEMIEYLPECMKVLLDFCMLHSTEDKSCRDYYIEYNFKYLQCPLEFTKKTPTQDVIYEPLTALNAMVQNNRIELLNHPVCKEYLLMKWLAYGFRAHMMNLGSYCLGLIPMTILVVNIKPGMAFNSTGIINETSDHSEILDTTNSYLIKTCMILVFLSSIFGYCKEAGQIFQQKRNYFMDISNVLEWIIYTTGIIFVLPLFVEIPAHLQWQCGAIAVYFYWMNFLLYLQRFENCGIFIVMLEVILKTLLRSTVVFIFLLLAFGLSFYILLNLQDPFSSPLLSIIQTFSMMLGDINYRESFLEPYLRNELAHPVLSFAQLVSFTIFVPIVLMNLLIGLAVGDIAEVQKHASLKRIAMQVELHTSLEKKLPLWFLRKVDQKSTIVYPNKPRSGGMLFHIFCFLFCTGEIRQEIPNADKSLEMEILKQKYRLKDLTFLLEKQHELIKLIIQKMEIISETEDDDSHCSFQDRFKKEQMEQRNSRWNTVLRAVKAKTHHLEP

Structure (SMILES) | IC50 [nM]
COc1ccc(CCNc2nc(CNC(=O)[C@@H]3CCCN3S(=O)(=O)c3ccc(F)cc3)cc(-c3ccc(C(F)(F)F)cc3)n2)cc1OC [Example 197, 1-(4-Fluoro-benzenesulfonyl)-pyrrolidine-2S-carboxylic acid [2-[2-(3,4-dimethoxy-phenyl)-ethylamino]-6-(4-trifluoromethyl-phenyl)-pyrimidin-4-ylmethyl]-amide] | ~1150
C#CCNc1nc(CNC(=O)[C@@H]2CCCN2S(=O)(=O)c2ccc(F)cc2)cc(-c2ccc3c(c2)OCO3)n1 [Example 200, 1-(4-Fluoro-benzenesulfonyl)-pyrrolidine-2S-carboxylic acid (6-benzo[1,3]dioxol-5-yl-2-prop-2-ynylamino-pyrimidin-4-ylmethyl)-amide] | 3310
O=C(NCc1cc(-c2ccc3c(c2)OCO3)nc(NCc2cccnc2)n1)[C@@H]1CCCN1S(=O)(=O)c1ccc(F)cc1 [Example 201, 1-(4-Fluoro-benzenesulfonyl)-pyrrolidine-2S-carboxylic acid {6-benzo[1,3]dioxol-5-yl-2-[(pyridin-3-ylmethyl)-amino]-pyrimidin-4-ylmethyl}-amide] | 8130
CCCCNc1nc(CNC(=O)[C@@H]2CCCN2S(=O)(=O)c2ccc(F)cc2)cc(-c2ccc3c(c2)OCO3)n1 [Example 202, 1-(4-Fluoro-benzenesulfonyl)-pyrrolidine-2S-carboxylic acid (6-benzo[1,3]dioxol-5-yl-2-butylamino-pyrimidin-4-ylmethyl)-amide] | ~2400
O=C(NCc1cc(-c2ccc3c(c2)OCO3)nc(NCCc2ccccn2)n1)[C@@H]1CCCN1S(=O)(=O)c1ccc(F)cc1 [Example 203, 1-(4-Fluoro-benzenesulfonyl)-pyrrolidine-2S-carboxylic acid [6-benzo[1,3]dioxol-5-yl-2-(2-pyridin-2-yl-ethylamino)-pyrimidin-4-ylmethyl]-amide] | ~6460
O=C(NCc1cc(-c2ccc3c(c2)OCO3)nc(NC2CCCC2)n1)[C@@H]1CCCN1S(=O)(=O)c1ccc(F)cc1 [Example 204, 1-(4-Fluoro-benzenesulfonyl)-pyrrolidine-2S-carboxylic acid (6-benzo[1,3]dioxol-5-yl-2-cyclopentylamino-pyrimidin-4-ylmethyl)-amide] | ~2690
CCOC(=O)C1CCN(c2nc(CNC(=O)[C@@H]3CCCN3S(=O)(=O)c3ccc(F)cc3)cc(-c3ccc4c(c3)OCO4)n2)CC1 [Example 205, 1-[4-Benzo[1,3]dioxol-5-yl-6-({[1-(4-fluoro-benzenesulfonyl)-pyrrolidine-2S-carbonyl]-amino}-methyl)-pyrimidin-2-yl]-piperidine-4-carboxylic acid ethyl ester] | ~1780
O=C(NCc1cc(-c2ccc3c(c2)OCO3)nc(N2CCN(c3ccccn3)CC2)n1)[C@@H]1CCCN1S(=O)(=O)c1ccc(F)cc1 [Example 206, 1-(4-Fluoro-benzenesulfonyl)-pyrrolidine-2S-carboxylic acid [6-benzo[1,3]dioxol-5-yl-2-(4-pyridin-2-yl-piperazin-1-yl)-pyrimidin-4-ylmethyl]-amide] | 4470
O=C(NCc1cc(-c2ccc3c(c2)OCO3)nc(N2CCOCC2)n1)[C@@H]1CCCN1S(=O)(=O)c1ccc(F)cc1 [Example 207, 1-(4-Fluoro-benzenesulfonyl)-pyrrolidine-2S-carboxylic acid (6-benzo[1,3]dioxol-5-yl-2-morpholin-4-yl-pyrimidin-4-ylmethyl)-amide] | 9120
O=C(NCc1cc(-c2ccc3c(c2)OCO3)nc(N2CCc3ccccc3C2)n1)[C@@H]1CCCN1S(=O)(=O)c1ccc(F)cc1 [Example 208, 1-(4-Fluoro-benzenesulfonyl)-pyrrolidine-2S-carboxylic acid [6-benzo[1,3]dioxol-5-yl-2-(3,4-dihydro-1H-isoquinolin-2-yl)-pyrimidin-4-ylmethyl]-amide] | 2290
C#CCNc1nc(CNC(=O)[C@@H]2CCCN2S(=O)(=O)c2ccc(F)cc2)cc(-c2ccc(Br)cc2)n1 [Example 209, 1-(4-Fluoro-benzenesulfonyl)-pyrrolidine-2S-carboxylic acid [6-(4-bromo-phenyl)-2-prop-2-ynylamino-pyrimidin-4-ylmethyl]-amide] | 1000
O=C(NCc1cc(-c2ccc(Br)cc2)nc(N[C@@H](CO)Cc2ccccc2)n1)[C@@H]1CCCN1S(=O)(=O)c1ccc(F)cc1 [Example 210, 1-(4-Fluoro-benzenesulfonyl)-pyrrolidine-2S-carboxylic acid [6-(4-bromo-phenyl)-2-(1S-hydroxymethyl-2-phenyl-ethylamino)-pyrimidin-4-ylmethyl]-amide] | 4570

More lines, now with the values ahead:

IC50 [nM] | Structure (SMILES)
575 | CCOC(=O)C1CCN(c2nc(CNC(=O)[C@@H]3CCCN3S(=O)(=O)c3ccc(F)cc3)cc(-c3ccc(C(F)(F)F)cc3)n2)CC1 (racemic) [Example 194, 1-[4-({[1-(4-Fluoro-benzenesulfonyl)-pyrrolidine-2S-carbonyl]-amino}-methyl)-6-(4-trifluoromethyl-phenyl)-pyrimidin-2-yl]-piperidine-4(R,S)-carboxylic acid ethyl ester]
~33 | O=C(NCc1cc(-c2ccc(C(F)(F)F)cc2)nc(C(F)(F)F)n1)[C@@H]1CCCN1S(=O)(=O)c1ccc(F)cc1 [Example 184, 1-(4-Fluoro-benzenesulfonyl)-pyrrolidine-2S-carboxylic acid [2-trifluoromethyl-6-(4-trifluoromethyl-phenyl)-pyrimidin-4-ylmethyl]-amide]
~1950 | O=C(NCc1cc(-c2ccc(C(F)(F)F)cc2)nc(N2CCC[C@H]2CO)n1)[C@@H]1CCCN1S(=O)(=O)c1ccc(F)cc1 [Example 190, 1-(4-Fluoro-benzenesulfonyl)-pyrrolidine-2S-carboxylic acid [2-(2S-hydroxymethyl-pyrrolidin-1-yl)-6-(4-trifluoromethyl-phenyl)-pyrimidin-4-ylmethyl]-amide]
2140 | O=C(NCc1cc(-c2ccc(C(F)(F)F)cc2)nc(N[C@@H](CO)Cc2ccccc2)n1)[C@@H]1CCCN1S(=O)(=O)c1ccc(F)cc1 [Example 191, 1-(4-Fluoro-benzenesulfonyl)-pyrrolidine-2S-carboxylic acid [2-(1S-hydroxymethyl-2-phenyl-ethylamino)-6-(4-trifluoromethyl-phenyl)-pyrimidin-4-ylmethyl]-amide]
~588 | O=C(NCc1cc(-c2ccc(C(F)(F)F)cc2)nc(NC2CC2)n1)[C@@H]1CCCN1S(=O)(=O)c1ccc(F)cc1 [Example 192, 1-(4-Fluoro-benzenesulfonyl)-pyrrolidine-2S-carboxylic acid [2-cyclopropylamino-6-(4-trifluoromethyl-phenyl)-pyrimidin-4-ylmethyl]-amide]
617 | O=C(NCc1cc(-c2ccc(C(F)(F)F)cc2)nc(NCCc2ccc(Cl)cc2Cl)n1)[C@@H]1CCCN1S(=O)(=O)c1ccc(F)cc1 [Example 195, 1-(4-Fluoro-benzenesulfonyl)-pyrrolidine-2S-carboxylic acid [2-[2-(2,4-dichloro-phenyl)-ethylamino]-6-(4-trifluoromethyl-phenyl)-pyrimidin-4-ylmethyl]-amide]
~4790 | CN1CCCC1CCNc1nc(CNC(=O)[C@@H]2CCCN2S(=O)(=O)c2ccc(F)cc2)cc(-c2ccc(C(F)(F)F)cc2)n1 (stereo partly drawn) [Example 196, 1-(4-Fluoro-benzenesulfonyl)-pyrrolidine-2S-carboxylic acid [2-[2-(1-methyl-pyrrolidin-2(R,S)-yl)-ethylamino]-6-(4-trifluoromethyl-phenyl)-pyrimidin-4-ylmethyl]-amide]
~3020 | CN1CCCN(c2nc(CNC(=O)[C@@H]3CCCN3S(=O)(=O)c3ccc(F)cc3)cc(-c3ccc(C(F)(F)F)cc3)n2)CC1 [Example 198, 1-(4-Fluoro-benzenesulfonyl)-pyrrolidine-2S-carboxylic acid [2-(4-methyl-[1,4]diazepan-1-yl)-6-(4-trifluoromethyl-phenyl)-pyrimidin-4-ylmethyl]-amide]
~3310 | NS(=O)(=O)c1ccc(CCNc2nc(CNC(=O)[C@@H]3CCCN3S(=O)(=O)c3ccc(F)cc3)cc(-c3ccc(C(F)(F)F)cc3)n2)cc1 [Example 199, 1-(4-Fluoro-benzenesulfonyl)-pyrrolidine-2S-carboxylic acid [2-[2-(4-sulfamoyl-phenyl)-ethylamino]-6-(4-trifluoromethyl-phenyl)-pyrimidin-4-ylmethyl]-amide]
